In patent publication US20260216299A1, “Use of Cytoglobin in Preparation of Drug for Preventing and/or Treating Diabetes” (priority 2022, published 2026):

Key:
[1] = system: C57BL/6J diabetic model mice; test: Four blood lipid items in serum of treated mice (T-CHO, TG, HDL-C, LDL-C kits); type: in vivo, C57BL/6J mice; settings: subcutaneous rhCygb 5 mg/kg or exendin-4 50 μg/kg, after 28 d of treatment
Description: (§1) The AUC for blood glucose changes within two hours post-glucose gavage was shown in FIG. 5, confirming impaired glucose tolerance in the DM group. • 2) Successfully modeled mice were divided into three groups based on no statistical difference in blood glucose within groups and statistical difference in blood glucose between groups: wherein the three groups are rhCygb treatment group (5 mg/kg subcutaneous injection), exendin-4 treatment group (50 μg/kg subcutaneous injection), and placebo group (0.1 mL PBS subcutaneous injection) (grouping without re-caging, mice remained in original cages), respectively.
(§2) The mice of placebo group, rhCygb treatment group, and EX-4 treatment group received daily subcutaneous injections of PBS, rhCygb, or EX-4, respectively for 2 months (frequency adjusted based on survival status of mice). […] Absorbance at 510 nm was measured using a microplate reader. Cholesterol content was calculated according to the formula: […]
Serum from each treated C57BL/6J mouse was assayed using a total cholesterol assay kit. […] Absorbance at 510 nm was measured using a microplate reader. […] content was calculated according to the formula: […]
Serum from each treated C57BL/6J mouse was assayed using a triglyceride assay kit. […] Absorbance at 546 nm (A1) was measured using a microplate reader. […] Absorbance at 546 nm (A2) was measured again. […]

[2] = system: pancreatic tissue of C57BL/6J diabetic model mice; test: H&E staining of pancreatic tissue sections; type: in vivo, C57BL/6J mice; settings: acinar cell steatosis, islet morphology, inflammation; FIGS. 12A-12D
Description: as §1, §2
The severity of lesions observed in the HE-stained pathological sections of each mouse was graded. This ordinal data was analyzed using the K Independent Samples non-parametric test in SPSS software, and the result indicated a statistically significant difference between groups. As SPSS lacks pairwise comparison for multiple independent samples, all data were ranked and converted into quantitative data, then subjected to one-way ANOVA.

With Exendin-4 [reference compound] the total cholesterol levels ([1]; FIG. 8) was “statistically significant reduction in total cholesterol levels compared to the placebo group”, the LDL-C levels ([1]; FIG. 11) was “statistically significant reduction in LDL-C levels compared to the placebo group” and the “pancreatic tissue morphology (H&E)” value [2] was “persistent acinar steatosis similar to the PBS group”.
